Laboratory results from PMC6416464 (Drug Metabolism Letters, 2018).
Like-named read-outs stand apart in the source and are kept apart here.

Assays:
[1] = Metabolic stability, incubation with human liver cytosol; type: in vitro ADME; conditions: 1 µM test compound, 1 mg/mL protein
CYP3A4 [2] = molecular target: T1, CYP3A4 (Homo sapiens, UniProt P08684); assay: in vitro; conditions: microsomes, pH 7.4, % Inhibition of Control Activity CYP3A4 (substrate, testosterone)
CYP3A4 [3] = molecular target: T1, CYP3A4; assay: in vitro; conditions: microsomes, pH 7.4
[4] = Metabolic stability, incubation with human liver microsomes; conditions: 1 µM test compound, 0.5 mg/mL protein
CYP2C8 = molecular target: T2, CYP2C8 (Homo sapiens, UniProt P10632); assay: CYP inhibition in human liver microsomes, CYP2C8; conditions: human, human liver microsomes, pH 7.4, probe paclitaxel
T2 sequence (P10632 1-490): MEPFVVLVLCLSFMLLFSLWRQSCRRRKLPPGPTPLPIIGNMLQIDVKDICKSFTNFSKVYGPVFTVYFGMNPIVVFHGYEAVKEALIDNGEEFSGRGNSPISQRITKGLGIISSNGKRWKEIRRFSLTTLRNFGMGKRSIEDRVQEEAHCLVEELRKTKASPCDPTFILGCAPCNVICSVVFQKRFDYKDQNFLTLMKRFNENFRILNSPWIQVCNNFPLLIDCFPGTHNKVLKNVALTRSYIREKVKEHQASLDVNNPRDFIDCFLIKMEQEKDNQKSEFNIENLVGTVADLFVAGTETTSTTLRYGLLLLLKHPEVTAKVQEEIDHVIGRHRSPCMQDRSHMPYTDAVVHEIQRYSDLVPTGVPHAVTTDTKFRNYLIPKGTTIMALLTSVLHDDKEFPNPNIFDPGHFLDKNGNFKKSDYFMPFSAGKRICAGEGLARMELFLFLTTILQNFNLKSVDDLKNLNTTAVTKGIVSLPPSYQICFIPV

rCYP3A4 = rCYP3A4 (Homo sapiens, UniProt P08684)
rCYP1A2 = molecular target: T3, rCYP1A2 (Homo sapiens, UniProt P05177); assay: Metabolic stability / reaction phenotyping with recombinant human CYP1A2; conditions: 1 µM test compound; 100 pmol/mL; 30 min
T3 sequence (P05177 1-516): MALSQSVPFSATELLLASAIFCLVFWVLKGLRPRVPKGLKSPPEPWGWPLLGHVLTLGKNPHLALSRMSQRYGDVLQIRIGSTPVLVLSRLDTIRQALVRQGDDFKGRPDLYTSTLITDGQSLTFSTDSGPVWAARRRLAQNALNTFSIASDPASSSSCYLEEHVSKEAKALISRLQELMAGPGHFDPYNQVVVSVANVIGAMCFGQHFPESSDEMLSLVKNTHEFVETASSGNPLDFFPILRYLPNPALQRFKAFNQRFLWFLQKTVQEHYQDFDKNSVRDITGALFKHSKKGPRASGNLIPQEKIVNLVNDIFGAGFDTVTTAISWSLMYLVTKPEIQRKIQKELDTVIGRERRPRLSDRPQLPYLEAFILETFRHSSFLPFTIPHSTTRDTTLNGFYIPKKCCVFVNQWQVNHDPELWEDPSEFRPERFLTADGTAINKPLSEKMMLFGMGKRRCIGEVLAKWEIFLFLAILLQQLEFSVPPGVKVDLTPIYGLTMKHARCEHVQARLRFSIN

rCYP2C8 = molecular target: T4, rCYP2C8 (Homo sapiens, UniProt P10632); assay: Metabolic stability / reaction phenotyping with recombinant human CYP2C8; conditions: 1 µM test compound; 100 pmol/mL; 30 min
T4 sequence (P10632 1-490): T2 sequence (P10632 1-490)

rCYP2C9 = rCYP2C9 (Homo sapiens, UniProt P11712); assay: Metabolic stability / reaction phenotyping with recombinant human CYP2C9; conditions: 1 µM test compound; 100 pmol/mL; 30 min
rCYP2D6 = rCYP2D6 (Homo sapiens, UniProt P10635); assay: Metabolic stability / reaction phenotyping with recombinant human CYP2D6; conditions: 1 µM test compound; 100 pmol/mL; 30 min
rCYP2C19 = rCYP2C19 (Homo sapiens, UniProt P33261); assay: Metabolic stability / reaction phenotyping with recombinant human CYP2C19
[5] = 1 µM test compound, 100 pmol/mL, 30 min
[6] = human, recombinant enzyme, pH 7.4
[7] = human, recombinant human CYP2C19, 1 µM, pH 7.4

Sequence of rCYP2C19 (P33261 whole entry): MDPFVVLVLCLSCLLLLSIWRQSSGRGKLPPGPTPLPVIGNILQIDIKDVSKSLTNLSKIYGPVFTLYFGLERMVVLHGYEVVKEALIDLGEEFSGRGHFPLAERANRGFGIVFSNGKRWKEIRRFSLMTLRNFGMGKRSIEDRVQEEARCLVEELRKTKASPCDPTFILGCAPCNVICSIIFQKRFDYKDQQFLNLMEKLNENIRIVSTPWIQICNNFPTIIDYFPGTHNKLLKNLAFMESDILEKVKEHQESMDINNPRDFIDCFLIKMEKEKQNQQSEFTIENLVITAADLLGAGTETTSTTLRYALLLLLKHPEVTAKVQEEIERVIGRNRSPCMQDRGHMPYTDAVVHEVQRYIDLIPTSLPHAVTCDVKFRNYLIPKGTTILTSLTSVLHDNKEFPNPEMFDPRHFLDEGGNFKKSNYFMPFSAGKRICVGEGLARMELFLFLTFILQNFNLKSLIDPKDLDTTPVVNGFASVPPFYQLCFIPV
T1 sequence (P08684 2-503): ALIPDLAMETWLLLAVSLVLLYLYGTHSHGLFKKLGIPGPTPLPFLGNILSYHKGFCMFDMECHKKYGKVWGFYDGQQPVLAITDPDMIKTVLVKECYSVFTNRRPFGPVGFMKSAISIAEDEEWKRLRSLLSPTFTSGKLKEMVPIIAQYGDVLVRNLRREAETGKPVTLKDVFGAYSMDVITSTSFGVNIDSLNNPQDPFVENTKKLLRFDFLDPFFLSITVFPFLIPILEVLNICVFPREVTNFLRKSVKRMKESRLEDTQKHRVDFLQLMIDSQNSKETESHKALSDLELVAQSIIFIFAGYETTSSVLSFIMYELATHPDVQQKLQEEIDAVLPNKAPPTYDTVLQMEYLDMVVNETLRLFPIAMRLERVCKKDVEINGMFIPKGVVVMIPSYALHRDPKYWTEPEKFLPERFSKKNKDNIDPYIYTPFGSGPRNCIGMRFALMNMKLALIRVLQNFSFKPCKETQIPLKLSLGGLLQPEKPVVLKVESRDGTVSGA
Sequence of rCYP3A4 (P08684 whole entry): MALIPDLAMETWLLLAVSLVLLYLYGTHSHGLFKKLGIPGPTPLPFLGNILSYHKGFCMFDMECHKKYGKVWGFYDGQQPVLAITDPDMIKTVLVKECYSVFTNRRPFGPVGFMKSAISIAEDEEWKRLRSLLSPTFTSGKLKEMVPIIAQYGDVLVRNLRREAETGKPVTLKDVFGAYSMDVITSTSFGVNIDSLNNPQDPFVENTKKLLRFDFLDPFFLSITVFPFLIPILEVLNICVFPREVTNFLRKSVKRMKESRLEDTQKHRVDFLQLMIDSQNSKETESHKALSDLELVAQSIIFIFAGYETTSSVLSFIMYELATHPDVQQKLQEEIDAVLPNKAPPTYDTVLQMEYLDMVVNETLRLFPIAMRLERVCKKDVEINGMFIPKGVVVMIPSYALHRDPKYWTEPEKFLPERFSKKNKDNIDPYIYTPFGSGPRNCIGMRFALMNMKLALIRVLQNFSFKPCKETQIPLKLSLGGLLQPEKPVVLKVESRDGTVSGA
Sequence of rCYP2C9 (P11712 whole entry): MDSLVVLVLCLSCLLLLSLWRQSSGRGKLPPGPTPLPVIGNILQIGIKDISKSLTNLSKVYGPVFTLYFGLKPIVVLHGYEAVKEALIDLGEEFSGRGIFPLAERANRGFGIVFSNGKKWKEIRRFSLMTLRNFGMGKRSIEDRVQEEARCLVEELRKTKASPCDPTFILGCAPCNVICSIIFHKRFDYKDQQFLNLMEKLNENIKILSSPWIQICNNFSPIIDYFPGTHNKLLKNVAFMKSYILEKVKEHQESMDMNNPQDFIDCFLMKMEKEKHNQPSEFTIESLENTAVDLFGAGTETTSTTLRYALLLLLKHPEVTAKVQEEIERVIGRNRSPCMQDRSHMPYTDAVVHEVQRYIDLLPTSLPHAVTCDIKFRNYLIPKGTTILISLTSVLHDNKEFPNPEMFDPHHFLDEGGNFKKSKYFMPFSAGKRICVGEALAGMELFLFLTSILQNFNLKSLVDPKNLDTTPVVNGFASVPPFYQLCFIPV
Sequence of rCYP2D6 (P10635 whole entry): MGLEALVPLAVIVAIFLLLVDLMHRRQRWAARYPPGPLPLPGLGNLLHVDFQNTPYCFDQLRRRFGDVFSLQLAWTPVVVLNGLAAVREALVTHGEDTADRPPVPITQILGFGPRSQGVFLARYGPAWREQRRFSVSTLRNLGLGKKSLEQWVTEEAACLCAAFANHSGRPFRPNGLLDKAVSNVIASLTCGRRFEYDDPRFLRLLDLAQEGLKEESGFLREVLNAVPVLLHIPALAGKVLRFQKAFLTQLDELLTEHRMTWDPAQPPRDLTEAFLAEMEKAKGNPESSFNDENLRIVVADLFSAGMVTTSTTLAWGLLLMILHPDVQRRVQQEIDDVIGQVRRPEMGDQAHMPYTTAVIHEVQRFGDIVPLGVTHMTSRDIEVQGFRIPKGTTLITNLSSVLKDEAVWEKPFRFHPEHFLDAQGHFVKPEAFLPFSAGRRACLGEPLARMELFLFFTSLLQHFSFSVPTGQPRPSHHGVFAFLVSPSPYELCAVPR

## CNC(=O)O/N=C/C(C)(C)S(C)(=O)=O [Aldicarb sulfone, aldicarb sulfone]
[1]
  % Metabolized at 30 min Incubation with Human Liver Fractions/Enzymes Cytosol: 0.00%
CYP3A4 [2]
  inhibition at 2 µM: 1.83%
  inhibition at 10 µM: < 0%
CYP3A4 [3]
  inhibition at 2 µM: < 0%
  inhibition at 10 µM: < 0%
[4]
  % Metabolized at 30 min Incubation with Human Liver Fractions/Enzymes HLM: 1.05%
CYP2C8
  inhibition at 2 µM: 2.77%
  inhibition at 10 µM: 4.1%

## CNC(=O)O/N=C/C(C)(C)[S+](C)[O-] (centres unmarked) [Aldicarb sulfoxide, aldicarb sulfoxide]
[1]
  % Metabolized at 30 min Incubation with Human Liver Fractions/Enzymes Cytosol: 0.00%
rCYP3A4; [5]
  % Metabolized at 30 min Incubation with Human Liver Fractions/Enzymes rCYP3A4: 5.91%
rCYP3A4; human, pH 7.4
  Predicted Microsomal Clint, CYP3A4: 2.254 µL/min/mg Protein
rCYP3A4; [6]
  % Contribution of CYP Enzymes (fmCYP) in Metabolism, CYP3A4: 97.66%
  rCYP Clint, CYP3A4: 0.020 µL/min/pmol
CYP3A4 [2]
  inhibition at 2 µM: < 0%
  inhibition at 10 µM: < 0%
CYP3A4 [3]
  inhibition at 2 µM: < 0%
  inhibition at 10 µM: < 0%
[4]
  % Metabolized at 30 min Incubation with Human Liver Fractions/Enzymes HLM: 21.18%
CYP2C8
  inhibition at 2 µM: < 0%
  inhibition at 10 µM: 2.32%
rCYP1A2
  % Metabolized at 30 min Incubation with Human Liver Fractions/Enzymes rCYP1A2: 0.00%
rCYP2C8
  % Metabolized at 30 min Incubation with Human Liver Fractions/Enzymes rCYP2C8: 0.00%
rCYP2C9
  % Metabolized at 30 min Incubation with Human Liver Fractions/Enzymes rCYP2C9: 0.00%
rCYP2D6
  % Metabolized at 30 min Incubation with Human Liver Fractions/Enzymes rCYP2D6: 0.00%
rCYP2C19; [5]
  % Metabolized at 30 min Incubation with Human Liver Fractions/Enzymes rCYP2C19: 0.85%
rCYP2C19; [7]
  % Contribution of CYP Enzymes (fmCYP) in Metabolism, CYP2C19: 2.34%
  Predicted Microsomal Clint, CYP2C19: 0.054 µL/min/mg Protein
  rCYP Clint, CYP2C19: 0.003 µL/min/pmol

## CN(C)CCCOc1nn(Cc2ccccc2)c2ccccc12 [Benzydamine, reference compound]
[4]
  % Metabolized at 30 min Incubation with Human Liver Fractions/Enzymes HLM: 16.45%

## COc1ccc2c(c1)[C@]13CCCC[C@@H]1[C@H](C2)N(C)CC3 [Dextromethorphan, dextromethorphan]
rCYP2D6
  % Metabolized at 30 min Incubation with Human Liver Fractions/Enzymes rCYP2D6: 99.81%

## O=C(O)Cc1ccccc1Nc1c(Cl)cccc1Cl [Diclofenac, diclofenac, reference compound]
rCYP2C9
  % Metabolized at 30 min Incubation with Human Liver Fractions/Enzymes rCYP2C9: 98.61%

## CN(Cc1cnc2nc(N)nc(N)c2n1)c1ccc(C(=O)N[C@@H](CCC(=O)O)C(=O)O)cc1 [Methotrexate, reference compound]
[1]
  % Metabolized at 30 min Incubation with Human Liver Fractions/Enzymes Cytosol: 3.18%

## CC(=O)O[C@H]1C(=O)[C@@]2(C)[C@H]([C@H](OC(=O)c3ccccc3)[C@]3(O)C[C@H](OC(=O)[C@H](O)[C@@H](NC(=O)c4ccccc4)c4ccccc4)C(C)=C1C3(C)C)[C@]1(OC(C)=O)CO[C@@H]1C[C@@H]2O [Paclitaxel, paclitaxel]
rCYP2C8
  % Metabolized at 30 min Incubation with Human Liver Fractions/Enzymes rCYP2C8: 11.21%

## CCOc1ccc(NC(C)=O)cc1 [Phenacetin, phenacetin]
rCYP1A2
  % Metabolized at 30 min Incubation with Human Liver Fractions/Enzymes rCYP1A2: 91.43%

## c1ccc2cnncc2c1 [Phthalazine, phthalazine, reference compound]
[1]
  % Metabolized at 30 min Incubation with Human Liver Fractions/Enzymes Cytosol: 90.89%

## CN(CCOc1ccc(CC2SC(=O)NC2=O)cc1)c1ccccn1 (centres unmarked) [Rosiglitazone, reference compound]
CYP2C8
  inhibition at 25 µM: 69.2%

## C[C@]12CC[C@H]3[C@@H](CCC4=CC(=O)CC[C@@]43C)[C@@H]1CC[C@@H]2O [Testosterone, testosterone, reference compound]
rCYP3A4; human, recombinant enzyme, 0.5 h, pH 7.4
  % Metabolized at 30 min Incubation with Human Liver Fractions/Enzymes rCYP3A4: 85.13%
[4]
  % Metabolized at 30 min Incubation with Human Liver Fractions/Enzymes HLM: 90.74%
